Earlier results on 1 compound are cited in patent US20180338945A1, “SKIN ADHESIVES, ANTIMICROBIAL COMPOSITIONS, ARTICLES, AND METHODS FOR THE USE THEREOF” (DERMALINK TECHNOLOGIES, INC., priority 2015, published 2018).

Series [1] concerns A. brasiliensis. As to conditions: pure LAE.
In series [2] the test system is E. coli. The following applies: pure LAE.

Take `CCCCCCCCCCCC(=O)N[C@@H](CCCNC(=N)N)C(=O)OCC` [LAE, N^α-lauroyl-arginine ethyl ester]: the “minimum inhibitory concentration (MIC)” value in series [1] was 32 micrograms per mL; in series [2] it was 16 micrograms per mL.
